In patent publication US11786132B2, “Systems and methods for predicting arousal to consciousness during general anesthesia and sedation” (The General Hospital Corporation, priority 2011, dated 2023):
Values joined by “and” are separate entries in the source; they are usually repeats but may differ in a detail not shown here. Equal entries are not always repeated. Where two headings read alike, the source gives them in different places.

How the values were obtained:
healthy volunteers [1] = tested on: healthy volunteers
Experimental: (§1) These studies were approved by the Human Research Committee at the Massachusetts General Hospital. All subjects provided informed consent and were American Society of Anesthesiology Physical Status I with Mallampati Class I airway anatomy. […] We administered a urine pregnancy test for each female subject to confirm that they were not pregnant. Before the start of the study, we required subjects to take nothing by mouth for at least 8 hours. […] We maintained each target effect-site concentration level for 14 min. […] Volunteers were instructed to close their eyes throughout the study to avoid eye-blink artifacts in the electroencephalogram. Volunteers were presented with auditory stimuli during the study and asked to respond by button presses to assess the level of conscious behavior. […] Verbal stimuli consisted either of the subject's name or a word randomized with an equal number of name or word stimuli at each level. The click train was delivered binaurally, with 40-Hz clicks in the left ear and 84-Hz clicks in the right ear. Subjects were instructed to press one button if they heard their name and to press the other button if they heard any other stimulus. Stimuli were recorded at a sampling rate of 44.1 kHz and were presented using Presentation software (Neurobehavioral Systems, Inc., Berkeley, Calif.) with ear-insert headphones (ER2; Etymotic Research, Elk Grove Village, Ill.) at ˜81 decibels peak sound pressure level. Button-press stimuli were recorded using a custom-built computer mouse with straps fitted to hold the first and second fingers in place over the mouse buttons. The mouse was also lightly strapped to the subject's hand using tape and an arterial line board to ensure that responses could be recorded accurately.
(§2) An anti-aliasing filter was applied and the EEG data was downsampled to 250 Hz before analysis. EEG signals were re-montaged to a nearest-neighbor Laplacian reference, using distances along the scalp surface to weigh neighboring electrode contributions.
(§3) First, 2-minute EEG segments were selected from all subjects during the awake, eyes closed baseline. Eye closure facilitates distinguishing between normal awake, eyes-closed occipital alpha oscillations and the frontal alpha oscillations associated with anesthesia induced altered arousal.
(§4) Electroencephalogram data segments were selected based on the behavioral response.
(§5) For each volunteer subject, TM electroencephalogram epochs were chosen that occurred within the first 2-minutes of the onset of this pattern. […] For each volunteer subject, PM electroencephalogram epochs were chosen that occurred within the first 2-minutes of the onset of this pattern.
The power spectral density, also referred to as the power spectrum or spectrum, quantifies the frequency distribution of energy or power within a signal. The spectrogram is a time-varying version of the spectrum. […] In these spectrograms, frequencies are arranged along the y-axis, and time along the x-axis, and power is indicated by color on a decibel (dB) scale. […] Spectra and spectrograms were computed using the multitaper method, implemented in the Chronux toolbox.
Group-level spectrograms were computed by taking the median across volunteers.

healthy volunteers [2] = tested on: healthy volunteers; remark: listed apart in the source
Experimental: as §1, §2, §3, §4, §5
The coherence quantifies the degree of correlation between two signals at a given frequency. […] The coherence Cxy(f) function between two signals x and y is defined as:
[formula] where Sxy(f) is the cross-spectrum between the signals x(t) and y(t), Sxx(f) is the power spectrum of the signal x(t) and Syy(f) is the power spectrum of the signal y(t). Similar to the spectrum and spectrogram, the coherence can be estimated as a time-varying quantity called the coherogram.

healthy volunteers [3] = tested on: healthy volunteers; remark: listed apart in the source
Experimental: as §1, §4, §5

[4] = Plethysmography and blood gas experiments; details: in vivo
From the text: For example, in accordance with one aspect of the present disclosure, methylphenidate (MPH) can be used as an inhibitor of dopamine and norepinephrine reuptake transporters and actively induces emergence from isoflurane general anesthesia. MPH can be used to restore consciousness, induce electroencephalogram changes consistent with arousal, and increase respiratory drive. The behavioral and respiratory effects induced by methylphenidate can be inhibited by droperidol, supporting the evidence that methylphenidate induces arousal by activating a dopaminergic arousal pathway.

[5] = tested on: patients undergoing general anesthesia; experiment: Intra-operative EEG during general anesthesia with sevoflurane as primary maintenance agent; type: in vivo, human
Experimental: In addition, to study the relationship between EEG dynamics in context of potential neural circuit mechanisms of an anesthetic vapor, intra-operative EEG were recorded from patients undergoing general anesthesia with sevoflurane as the primary maintenance agent, which is an ether derivative commonly used to maintain GA. […] Connectivity analysis was then performed on the EEG dynamics postulated to be involved in anesthesia-induce depression in consciousness. […] These observed similarities are consistent with present understanding of how EEG features relate to anesthesia-induced depression of consciousness, and provide a framework for further experimental studies on the neural circuit mechanisms of general anesthesia.

[6] = tested on: patients undergoing light sedation with dexmedetomidine, sedation with propofol and general anesthesia with propofol; details: intraoperative frontal EEG
[7] = propofol-induced unconsciousness (PM)
[8] = propofol-induced unconsciousness (TM)
[9] = Propofol-induced unconsciousness (PM) epoch
[10] = Propofol-induced unconsciousness (TM) epoch
[11] = dexmedetomidine-induced unconsciousness

Compound: CC(C)c1cccc(C(C)C)c1O [propofol]
- propofol effect site concentrations over which the signature is stably maintained (healthy volunteers [1]; PM pattern): 3 to 5 µg/mL
- frequency range where PM oscillations were significantly larger than TM (healthy volunteers [1]; propofol PM vs TM, FIG. 10F, P<0.0003, TGTS): 0.1-13.4 Hz
- alpha oscillation peak frequency (EEG power) (healthy volunteers [1]; [7]): 10.8 Hz
- frontal alpha oscillation peak power (healthy volunteers [1]; [7]): 1.1 dB
- slow oscillation power (healthy volunteers [1]; [7]): 13.2 dB
- amplitude of slow oscillations, PM relative to TM and the baseline state (healthy volunteers [1]; propofol-induced unconsciousness (PM) vs (TM)): approximately 6 fold
- amplitude of alpha oscillations, propofol PM relative to dexmedetomidine spindle oscillations (healthy volunteers [1]; propofol-induced unconsciousness (PM) vs dexmedetomidine): approximately 3.9 fold
- frequency range where EEG power was significantly larger than dexmedetomidine-induced unconsciousness (healthy volunteers [1]; propofol-induced unconsciousness (PM) vs dexmedetomidine, P<0.0005, TGTS): 0.1-40 Hz
- frequency range where EEG power was significantly larger than baseline (healthy volunteers [1]; propofol-induced unconsciousness (PM), FIG. 10E, P<0.0003, TGTS): 0.1-40 Hz
- broad-band frequency range of increased power in spectrogram (healthy volunteers [1]; [8]): 1-25 Hz
- slow oscillation power (healthy volunteers [1]; [8]): −2.5 dB
- frequency range where EEG power was larger than dexmedetomidine-induced unconsciousness (healthy volunteers [1]; propofol-induced unconsciousness (TM) vs dexmedetomidine, P<0.0005, TGTS): 14.9-40 Hz
- propofol effect site concentrations over which the signature is stably maintained (healthy volunteers [1]; trough max (TM) pattern): 1 to 2 µg/mL
- time after loss of consciousness to which the trough-max pattern extends (healthy volunteers [1]; trough-max pattern): ~10 min
- time before loss of consciousness at which the trough-max pattern begins (healthy volunteers [1]; trough-max pattern): ~20 min
- alpha oscillation coherence peak frequency (healthy volunteers [2]; [7]): 10.8 Hz
- alpha oscillation peak coherence (healthy volunteers [2]; [7]): 0.89±0.05
- slow oscillation coherence compared to baseline (healthy volunteers [2]; [7]): non-significant decrease
- frequency range of decrease in coherence on coherogram (healthy volunteers [2]; propofol-induced unconsciousness (PM), FIG. 13C): 0.1-1 Hz
- frequency range of significant increase in coherence vs baseline (healthy volunteers [2]; propofol-induced unconsciousness (PM), FIG. 13E, P<0.0003, TGTC): 3.9-15.1 Hz
- alpha oscillation coherence peak frequency (healthy volunteers [2]; propofol-induced unconsciousness (PM), listed as Propofol): ~10 Hz
- broad frequency range of increase in coherence on coherogram (healthy volunteers [2]; [8]): 1-25 Hz
- frequency range where coherence was larger than dexmedetomidine-induced unconsciousness (healthy volunteers [2]; propofol-induced unconsciousness (TM) vs dexmedetomidine, FIG. 15A, P<0.0005, TGTC): 17.3-25.9 Hz
- frequency ranges where oscillations were coherent vs baseline (healthy volunteers [2]; propofol-induced unconsciousness (TM), FIG. 13D, P<0.0003, TGTC): 10.7-15.4 Hz and 17.3-25.9 Hz
- Behavioral State (healthy volunteers [3]; [9]): General
- Probability of Response to Verbal Stimuli (%) mean (±SD) (healthy volunteers [3]; [9]): 0%
- Behavioral State (healthy volunteers [3]; [10]): Sedation
- Probability of Response to Verbal Stimuli (%) mean (±SD) (healthy volunteers [3]; [10]): 91.5 (15.4) %

Compound: COC(=O)C(c1ccccc1)C1CCCCN1 (stereo not drawn) [methylphenidate]
- minute ventilation [4]: increases minute ventilation

Compound: FCOC(C(F)(F)F)C(F)(F)F [sevoflurane]
- macroscopic EEG dynamics during GA induced unconsciousness [5]: closely resemble those of propofol

Compound: Cc1cccc([C@H](C)c2cnc[nH]2)c1C [dexmedetomidine]
- slow oscillation power (healthy volunteers [1]; [11]): −0.4 dB
- frequency range where EEG power was larger than propofol-induced unconsciousness (TM) (healthy volunteers [1]; dexmedetomidine-induced unconsciousness vs propofol TM, P<0.0005, TGTS): 0.7-10 Hz
- frequency range of increased power in spectrogram compared to baseline (healthy volunteers [1]; dexmedetomidine-induced unconsciousness, FIGS. 9A, 9B): 2-15 Hz
- frequency range where EEG power was lower than baseline (healthy volunteers [1]; dexmedetomidine-induced unconsciousness, beta/gamma, P<0.001, TGTS): 21.2-40 Hz
- dex-spindle oscillation peak frequency (EEG power) (healthy volunteers [1]; dexmedetomidine-induced unconsciousness, mean±std): 12.9 Hz and ~13 Hz
- coherence peak frequency (dex-spindle) (healthy volunteers [2]; [11]): 13.4 Hz and ~13 Hz
- peak coherence (dex-spindle) (healthy volunteers [2]; [11]): 0.78±0.08
- slow oscillation coherence compared to the awake-state (healthy volunteers [2]; [11]): non-significant decrease
- frequency range where coherence was significantly larger than propofol-induced unconsciousness (PM) (healthy volunteers [2]; dexmedetomidine-induced unconsciousness vs propofol PM, FIG. 15B, P<0.0005, TGTC): 12.9-15.4 Hz
- frequency range of decrease in coherence on coherogram (healthy volunteers [2]; dexmedetomidine-induced unconsciousness, FIG. 12B): 0.1-1 Hz
- frequency range of significant differences in coherence vs baseline (healthy volunteers [2]; dexmedetomidine-induced unconsciousness, FIG. 12C, P<0.001, TGTC): 2.4-18.8 Hz
- frequency range of increase in coherence on coherogram (healthy volunteers [2]; dexmedetomidine-induced unconsciousness, FIGS. 12A, 12B): 1-15 Hz
- Behavioral State (healthy volunteers [3]; Dexmedetomidine-induced unconsciousness epoch): Sedation
- coherence of 0.1-1 Hz slow oscillations compared to propofol slow oscillations [6]: greater coherence
- coherence of 8-12 Hz oscillations compared to propofol induced oscillations [6]: less coherence
